These results are taken from patent US20220361496A1, “HERBICIDE COMPOSITIONS” (UPL CORPORATION LIMITED, priority 2019, published 2022).

SMILES strings stand for the structures.

What all share (format): in vivo
In experiment [1] the test system is Ipomoea grandifolia. Briefly: Pre-emergence herbicidal efficacy, % control of Ipomoea grandifolia. How it is done:
(§1) Experiments were carried out evaluate the efficacy, selectivity and synergism of propisochlor combinations when applied at soybean pre-emergence.
(§2) The evaluation for the damage on undesired weeds caused by the compositions was carried out using a scale from 0 to 100%, compared to the untreated control plants. Here, 0 means no damage and 100 means complete destruction of the plants.

Experiment [2] deals with Brachiaria decumbens. Briefly: Pre-emergence herbicidal efficacy, % control of Brachiaria decumbens. How it is done: as §1, §2
Experiment [3] concerns Cenchrus echinatus. Put plainly: Pre-emergence herbicidal efficacy, % control of Cenchrus echinatus. How it is done: as §1, §2
The test system of experiment [4] is Brachiaria plantaginea. Put plainly: Pre-emergence herbicidal efficacy, % control of Brachiaria plantaginea. Particulars: for % Control 35 DAA Brachiaria plantaginea: 35 DAA (Table 3). As for the experimental part:
as §1, §2
(§3) The tables 1 below relate to the herbicidal activity, of the individual actives and the combinations applied in pre-emergence application at 35 days after administration (DAA) treatment.

Experiment [5] relates to Spermacoce verticillata. Put plainly: Pre-emergence herbicidal efficacy, % weed control of Spermacoce verticillata. As for the experimental part: as §1, §2, §3
The subject of experiment [6] is Ipomoea hederifolia. Put plainly: Pre-emergence herbicidal efficacy, % weed control of Ipomoea hederifolia. How it is done: as §1, §2, §3

Take `CC(C)C1(C)N=C(c2ncccc2C(=O)O)NC1=O` (stereo not drawn) [imazapyr]: in experiment [1] (66.6 g ai/ha), the “% Control of Ipomoea grandifolia 7 DAA” value was 16.3%, the “% Control of Ipomoea grandifolia 14 DAA” value stood at 30.0%, the “% Control of Ipomoea grandifolia 21 DAA” value was 51.3% and the “% Control of Ipomoea grandifolia 28 DAA” value turned out to be 62.5%. Also, the “% Control of Ipomoea grandifolia 35 DAA” value in experiment [1] (66.6 g ai/ha) was found to be 63.8%. For the same compound, in experiment [2] (26.6 g ai/ha), the “% Control of Brachiaria decumbens 7 DAA” value is 30%, the “% Control of Brachiaria decumbens 14 DAA” value came out at 12.5%, the “% Control of Brachiaria decumbens 21 DAA” value was 6.3% and the “% Control of Brachiaria decumbens 28 DAA” value was found to be 2.5%. For the same compound, in experiment [3] (26.6 g ai/ha), the “% Control - Cenchrus echinatus 7 DAA” value stood at 3.8%, the “% Control - Cenchrus echinatus 28 DAA” value came out at 0.0% and the “% Control - Cenchrus echinatus 35 DAA” value is 0.0%.
As for `Cc1nn(-c2cc(NS(C)(=O)=O)c(Cl)cc2Cl)c(=O)n1C(F)F` [Sulfentrazone], the “% Control 35 DAA Brachiaria plantaginea” value in experiment [4] (150 g ai/ha) is listed as 65.00%. For the same compound, the “% Weed control 35 DAA Spermacoce verticillata” value in experiment [5] (75 g ai/ha) is on record as 92.25%. In addition, the “% Weed control 35 DAA Ipomoea hederifolia” value in experiment [6] (75 g ai/ha) was 98.00%.
`CCOc1nc(F)cc2nc(S(=O)(=O)Nc3c(Cl)cccc3Cl)nn12` [Diclosulam]: the “% Control of Brachiaria plantaginea 35 DAA” value in experiment [4] (20 g ai/ha) is recorded as 50.0%.
For the compound `CCc1cccc(C)c1N(COC(C)C)C(=O)CCl` [propisochlor], in experiment [1] (540 g ai/ha), the “% Control of Ipomoea grandifolia 7 DAA” value was 81.3%, the “% Control of Ipomoea grandifolia 14 DAA” value came to 87.0%, the “% Control of Ipomoea grandifolia 21 DAA” value worked out at 87.5% and the “% Control of Ipomoea grandifolia 28 DAA” value is 91.3%. Further, in experiment [1] (540 g ai/ha), the “% Control of Ipomoea grandifolia 35 DAA” value was found to be 91.8%. In addition, in experiment [4] (1200 g ai/ha), the “% Control of Brachiaria plantaginea 35 DAA” value came to 84.50% and the “% Control 35 DAA Brachiaria plantaginea” value came to 84.50%. For the same compound, in experiment [5] (525 g ai/ha), the “% Weed control 35 DAA Spermacoce verticillata” value is recorded as 92.75%. Also, the “% Weed control 35 DAA Spermacoce verticillata” value in experiment [5] (675 g ai/ha) is 95.75%. In experiment [2] (540 g ai/ha), the “% Control of Brachiaria decumbens 7 DAA” value is 89.5%, the “% Control of Brachiaria decumbens 14 DAA” value came out at 85.8%, the “% Control of Brachiaria decumbens 21 DAA” value was 78.8% and the “% Control of Brachiaria decumbens 28 DAA” value is given as 70%. Further, in experiment [2] (1080 g ai/ha), the “% Control of Brachiaria decumbens 7 DAA” value worked out at 92.8%, the “% Control of Brachiaria decumbens 14 DAA” value came out at 91%, the “% Control of Brachiaria decumbens 21 DAA” value amounted to 85% and the “% Control of Brachiaria decumbens 28 DAA” value came to 76.3%. For the same compound, in experiment [3] (540.0 g ai/ha), the “% Control - Cenchrus echinatus 7 DAA” value is on record as 91.3%, the “% Control - Cenchrus echinatus 28 DAA” value was found to be 75.8% and the “% Control - Cenchrus echinatus 35 DAA” value is listed as 65.0%. In addition, in experiment [3] (1080.0 g ai/ha), the “% Control - Cenchrus echinatus 7 DAA” value was determined as 95.3%, the “% Control - Cenchrus echinatus 28 DAA” value is reported as 85.0% and the “% Control - Cenchrus echinatus 35 DAA” value is listed as 80.0%. Also, in experiment [6] (525 g ai/ha), the “% Weed control 35 DAA Ipomoea hederifolia” value is listed as 26.25%. Moreover, the “% Weed control 35 DAA Ipomoea hederifolia” value in experiment [6] (675 g ai/ha) is on record as 27%.
For `CC(C)C1(C)N=C(c2nc3ccccc3cc2C(=O)O)NC1=O` (stereo not drawn) [imazaquin], in experiment [2] (80.5 g ai/ha), the “% Control of Brachiaria decumbens 7 DAA” value amounted to 30%, the “% Control of Brachiaria decumbens 14 DAA” value worked out at 22.5%, the “% Control of Brachiaria decumbens 21 DAA” value amounted to 21.3% and the “% Control of Brachiaria decumbens 28 DAA” value is reported as 18.8%. Also, in experiment [3] (80.5 g ai/ha), the “% Control - Cenchrus echinatus 7 DAA” value is given as 18.8%, the “% Control - Cenchrus echinatus 28 DAA” value is 10.0% and the “% Control - Cenchrus echinatus 35 DAA” value is reported as 6.3%.
